From paper PMC7073023, “Overexpression of ABCB1 Transporter Confers Resistance to mTOR Inhibitor WYE-354 in Cancer Cells” (International Journal of Molecular Sciences, 2020)

Columns and labels:
ABCB1 [1] = molecular target: T1, ABCB1 (Homo sapiens, UniProt P08183); test: cell-based; design: full length ABCB1 (transfected HEK293); ABCB1 membrane vesicles (ATPase kit); conditions: read-out: % of the basal activity
ABCB1 [2] = molecular target: T1, ABCB1

T1 sequence (P08183 whole entry): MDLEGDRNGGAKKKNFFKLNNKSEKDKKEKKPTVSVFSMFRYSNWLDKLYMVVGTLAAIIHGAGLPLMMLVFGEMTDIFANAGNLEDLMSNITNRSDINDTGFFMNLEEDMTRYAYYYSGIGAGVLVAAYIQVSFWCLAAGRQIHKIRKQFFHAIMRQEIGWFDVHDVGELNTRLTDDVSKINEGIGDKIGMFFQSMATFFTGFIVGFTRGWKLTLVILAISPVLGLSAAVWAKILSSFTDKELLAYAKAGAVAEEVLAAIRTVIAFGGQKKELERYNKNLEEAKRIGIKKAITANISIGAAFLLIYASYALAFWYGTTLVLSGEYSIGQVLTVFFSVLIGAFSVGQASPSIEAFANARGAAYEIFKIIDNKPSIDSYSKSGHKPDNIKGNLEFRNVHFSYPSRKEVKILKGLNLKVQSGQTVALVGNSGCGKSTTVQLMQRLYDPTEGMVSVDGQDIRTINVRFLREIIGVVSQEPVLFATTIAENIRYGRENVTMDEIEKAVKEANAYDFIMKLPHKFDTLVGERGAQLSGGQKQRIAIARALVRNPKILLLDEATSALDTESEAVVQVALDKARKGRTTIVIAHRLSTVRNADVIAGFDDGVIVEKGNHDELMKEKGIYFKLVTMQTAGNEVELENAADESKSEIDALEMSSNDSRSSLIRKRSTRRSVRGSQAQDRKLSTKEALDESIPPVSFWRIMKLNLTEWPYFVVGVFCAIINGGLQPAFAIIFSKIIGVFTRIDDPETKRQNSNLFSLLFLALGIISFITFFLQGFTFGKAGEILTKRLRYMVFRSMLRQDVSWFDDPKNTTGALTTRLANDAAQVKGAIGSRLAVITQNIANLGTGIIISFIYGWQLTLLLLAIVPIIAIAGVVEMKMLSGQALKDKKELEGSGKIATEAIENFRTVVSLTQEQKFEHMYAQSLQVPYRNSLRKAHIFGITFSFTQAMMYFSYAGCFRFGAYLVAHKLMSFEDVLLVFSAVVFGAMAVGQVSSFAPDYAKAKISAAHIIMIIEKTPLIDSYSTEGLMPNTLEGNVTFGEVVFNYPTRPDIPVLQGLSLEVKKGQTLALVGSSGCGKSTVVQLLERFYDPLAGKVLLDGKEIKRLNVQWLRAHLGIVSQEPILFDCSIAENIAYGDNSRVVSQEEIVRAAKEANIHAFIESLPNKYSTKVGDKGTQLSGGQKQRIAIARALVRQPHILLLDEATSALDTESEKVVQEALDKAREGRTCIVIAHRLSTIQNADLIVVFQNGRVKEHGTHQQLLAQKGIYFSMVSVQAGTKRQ

| Emax (ABCB1 [1]) [%] | Compound | [3H]-paclitaxel accumulation in ABCB1-overexpressing and ABCB1-transfected cells (ABCB1 [2]) |
| --- | --- | --- |
| 141 | COC(=O)Nc1ccc(-c2nc(N3CCOCC3)c3cnn(C4CCN(C(=O)OC)CC4)c3n2)cc1 [WYE-354] | – |
| – | CC(=O)O[C@H]1C(=O)[C@@]2(C)[C@H]([C@H](OC(=O)c3ccccc3)[C@]3(O)C[C@H](OC(=O)[C@H](O)[C@@H](NC(=O)c4ccccc4)c4ccccc4)C(C)=C1C3(C)C)[C@]1(OC(C)=O)CO[C@@H]1C[C@@H]2O [paclitaxel] | drug–drug interaction between WYE-354 and paclitaxel, which is a known substrate of ABCB1 |
